What was measured:
Botrytis cinerea = experiment: Test A: preventive spray on tomato seedlings, Botrytis cinerea (gray mold), visual disease rating; assay type: in vivo; conditions: 100 = 100% disease control, 0 = no control relative to controls, unmarked values; for pest or weed control at 40 µg/mL, 160 g/ha: 96 h
Procedure, shortened: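 Tomato seedlings sprayed to run-off with 40 ppm or 10 ppm suspensions (160 or 40 g ai/ha) in acetone/water with 250 ppm surfactant. Inoculated with B. cinerea spores next day, held saturated at 20 °C for 48 h, then 27 °C for 2 days. Visual rating, 0–100% disease control relative to controls.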

[1] = system: Puccinia recondite f. sp. tritici; experiment: Test D: preventive spray on wheat seedlings, Puccinia recondite f. sp. tritici (wheat leaf rust), visual disease rating; assay type: in vivo; conditions: 100 = 100% disease control, 0 = no control, unmarked values
Procedure, shortened: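 Wheat seedlings sprayed to run-off with 40 ppm (160 g ai/ha) or 10 ppm (40 g ai/ha) suspension in acetone/water with 250 ppm surfactant, inoculated next day with leaf rust spores. After 24 h saturated at 20 °C then 6 days at 20 °C, visual rating of disease control (0–100) relative to controls.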

[2] = system: Erysiphe graminis f. sp. tritici; experiment: Test E: preventive spray on wheat seedlings, Erysiphe graminis f. sp. tritici (wheat powdery mildew), visual disease rating; assay type: in vivo; conditions: 100 = 100% disease control, 0 = no control, unmarked values
Procedure, shortened: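 Wheat seedlings were sprayed to run-off with 40 or 10 ppm suspension (160 or 40 g ai/ha) and dusted with spores the next day. They were then kept 8 days at 20 °C. Disease was rated visually as % control relative to untreated controls (0–100).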

[3] = system: Stagonospora nodorum (also known as Septoria nodorum); experiment: Test B: preventive spray on wheat seedlings, Stagonospora nodorum (wheat glume blotch), visual disease rating; assay type: in vivo; conditions: 100 = 100% disease control, 0 = no control, unmarked values
Procedure, shortened: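 Compounds in acetone/water (50/50) with 250 ppm Trem 014 surfactant were sprayed to run-off at 40 ppm (160 g ai/ha) or 10 ppm (40 g ai/ha). Seedlings were inoculated with S. nodorum spores the next day, then held 48 h saturated at 20 °C and 6 days in a growth chamber at 20 °C. Visual rating as % disease control vs untreated.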

Septoria tritici = experiment: Test C: preventive spray on wheat seedlings, Septoria tritici (wheat leaf blotch), visual disease rating; assay type: in vivo; conditions: 100 = 100% disease control, 0 = no control, unmarked values
Procedure, shortened: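 Wheat seedlings sprayed to run-off at 40 ppm or 10 ppm (160 or 40 g ai/ha) in acetone/water with surfactant, inoculated with Septoria tritici spores next day. Held 48 h saturated at 24 °C, then 21 days at 20 °C. Visual rating scored as % disease control relative to controls.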

melting point	SMILES	pest or weed control at 40 µg/mL, 160 g/ha (Botrytis cinerea)	Test D disease control rating [1]	Test E disease control rating [2]	Test A disease control rating (Botrytis cinerea)	Test B disease control rating [3]	Test C disease control rating (Septoria tritici)
157 to 159 °C	Cn1cc(C(=O)Nc2ccccc2-c2ccc(-n3ccc(C(F)(F)F)n3)nc2)c(C(F)F)n1 [Compound 51, 3-(difluoromethyl)-N-[2-[6-[3-(trifluoromethyl)-1H-pyrazol-1-yl]-3-pyridinyl]phenyl]-1-methyl-1H-pyrazole-4-carboxamide]	97%					
180 to 182 °C	O=C(Nc1ccccc1-c1cnc(-n2ccc(C(F)(F)F)n2)cn1)c1ccccc1C(F)(F)F [Compound 1, 2-(trifluoromethyl)-N-[2-[5-[3-(trifluoromethyl)-1H-pyrazol-1-yl]-2-pyrazinyl]phenyl]benzamide]	27%					
167 to 169 °C	Cn1cc(C(=O)Nc2ccccc2-c2cnc(-n3ccc(C(F)(F)F)n3)nc2)c(C(F)F)n1 [Compound 58, 3-(difluoromethyl)-1-methyl-N-[2-[2-[3-(trifluoromethyl)-1H-pyrazol-1-yl]-5-pyrimidinyl]phenyl]-1H-pyrazole-4-carboxamide]	0%					
207 to 209 °C	Cn1cc(C(=O)Nc2ccccc2-c2cnc(-n3ccc(C(F)(F)F)n3)cn2)c(C(F)F)n1 [Compound 2, 3-(difluoromethyl)-1-methyl-N-[2-[5-[3-(trifluoromethyl)-1H-pyrazol-1-yl]-2-pyrazinyl]phenyl]-1H-pyrazole-4-carboxamide]	15%					
178 to 180 °C	O=C(Nc1ccccc1-c1cnc(-n2ccc(C(F)(F)F)n2)nc1)c1ncccc1C(F)(F)F [Compound 56, 3-(trifluoromethyl)-N-[2-[2-[3-(trifluoromethyl)-1H-pyrazol-1-yl]-5-pyrimidinyl]phenyl]-2-pyridinecarboxamide]	16%					
248 to 250 °C	Cn1cc(C(=O)Nc2ccccc2-c2ccc(-n3ccc(C(F)(F)F)n3)nn2)c(C(F)F)n1 [Compound 54, 3-(difluoromethyl)-1-methyl-N-[2-[6-[3-(trifluoromethyl)-1H-pyrazol-1-yl]-3-pyridazinyl]phenyl]-1H-pyrazole-4-carboxamide]	0%					
	O=C(Nc1ccccc1-c1ccc(-n2cc(-c3ccccc3F)cn2)nc1)c1ncccc1C(F)(F)F [compound 29]		89%	82%	77%	99%	100%
	O=C(Nc1ccccc1-c1cnc(-n2cc(Cl)cn2)c(Cl)c1)c1ccccc1C(F)(F)F [compound 60]		100%	99%	34%	0%	100%
	O=C(Nc1ccccc1-c1ccc(C2=NOC(c3cccc(F)c3)C2)nc1)c1ncccc1C(F)(F)F (racemic) [compound 17]		99%	0%	98%	100%	100%
	Cn1cc(C(=O)Nc2ccccc2-c2cnc(-n3ccc(Br)n3)c(F)c2)c(C(F)F)n1 [compound 75]		100%	100%	99%	98%	100%
	COc1cccc(-c2cnn(-c3ccc(-c4ccccc4NC(=O)c4cn(C)nc4C(F)F)cn3)c2)c1 [compound 9]		100%	100%	100%	100%	100%
	O=C(Nc1ccccc1-c1cnc(-n2cc(Cl)cn2)c(F)c1)c1ncccc1C(F)(F)F [compound 70]		100%	100%	99%	99%	100%
	Cc1cnn(-c2ccc(-c3ccccc3NC(=O)c3cn(C)nc3C(F)F)cn2)c1 [compound 45]		100%	99%	99%	98%	100%
	O=C(Nc1ccccc1-c1cnc(-n2ccc(C(F)(F)F)n2)nc1)c1nccnc1Cl [compound 55]		91%	0%	0%	0%	100%
	O=C(Nc1ccccc1-c1cnc(-n2ccc(-c3ccccc3)n2)c(F)c1)c1ncccc1C(F)(F)F [compound 72]		97%	91%	92%	0%	100%
	COc1ccc(-c2ccn(-c3ccc(-c4ccccc4NC(=O)c4cn(C)nc4C(F)F)cn3)n2)cc1 [compound 88]		100%	93%	100%	0%	51%
	Cn1cc(C(=O)Nc2ccccc2-c2ccc(-n3ccc(-c4ccc(F)cc4F)n3)nc2)c(C(F)F)n1 [compound 101]		100%	92%	71%	60%	94%

From US9730447B2, “Fungicidal amides” (E I DU PONT DE NEMOURS AND COMPANY, priority 2013, dated 2017)
